Ki data for 39 compounds are collected here from US8242174B2 (priority 2007, dated 2012).

SMILES strings stand for the structures.

The target of the test is Lethal factor protease (Bacillus anthracis, UniProt P15917). Briefly: biochemical.
Sequence of Lethal factor protease (P15917 34-809 limits assumed): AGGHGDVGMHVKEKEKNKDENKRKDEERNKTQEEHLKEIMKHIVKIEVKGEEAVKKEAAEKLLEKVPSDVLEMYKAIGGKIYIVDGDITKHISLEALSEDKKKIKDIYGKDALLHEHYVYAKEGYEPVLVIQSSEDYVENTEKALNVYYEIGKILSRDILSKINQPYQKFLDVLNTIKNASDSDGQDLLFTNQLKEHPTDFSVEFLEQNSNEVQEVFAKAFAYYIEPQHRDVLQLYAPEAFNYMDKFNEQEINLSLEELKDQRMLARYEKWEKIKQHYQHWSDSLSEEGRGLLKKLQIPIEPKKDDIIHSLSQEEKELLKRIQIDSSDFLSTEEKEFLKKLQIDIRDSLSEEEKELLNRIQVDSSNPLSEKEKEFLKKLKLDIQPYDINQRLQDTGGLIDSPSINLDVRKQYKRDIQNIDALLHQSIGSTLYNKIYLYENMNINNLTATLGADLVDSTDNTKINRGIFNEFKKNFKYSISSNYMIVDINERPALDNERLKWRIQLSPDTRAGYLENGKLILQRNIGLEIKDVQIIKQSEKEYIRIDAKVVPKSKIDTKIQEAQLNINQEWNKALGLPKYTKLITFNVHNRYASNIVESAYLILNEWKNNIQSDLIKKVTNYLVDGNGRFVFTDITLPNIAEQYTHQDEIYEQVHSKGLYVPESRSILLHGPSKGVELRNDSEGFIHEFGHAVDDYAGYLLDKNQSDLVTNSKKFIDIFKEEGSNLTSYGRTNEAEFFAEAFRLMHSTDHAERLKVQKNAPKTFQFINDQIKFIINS
Broadly, the Ki is the dissociation constant of the complex between target and ligand, obtained from inhibition or displacement. A low value points to tighter binding. `CCCCC(Nc1ccccc1)C(=O)NO` (stereo not drawn) [Compound 167210, 2-Phenylamino-hexanoic acid hydroxyamide] yielded an inhibition constant Ki of 203000 nM. `Cc1cc(N[C@H](COC(C)(C)C)C(=O)NO)cc(C)c1F` [Compound 167484, (R)-3-tert-Butoxy-2-(4-fluoro-3,5-dimethyl-phenylamino)-N-hydroxy-propionamide] showed an inhibition constant Ki of 450 nM. `Cc1cc(N[C@H](CCCCNC(=O)OCc2ccccc2)C(=O)NO)cc(C)c1F` [Compound 167503, (R)-[5-(4-Fluoro-3,5-dimethyl-phenylamino)-5-hydroxycarbamoyl-pentyl]-carbamic acid benzyl ester] displayed a Ki of 290 nM. `Cc1cc(N[C@H](CCCCNS(=O)(=O)c2ccc(N)cc2)C(=O)NO)cc(C)c1F` [Compound 167656, (R)-6-(4-Amino-benzenesulfonylamino)-2-(4-fluoro-3,5-dimethyl-phenylamino)-hexanoic acid hydroxyamide] displayed an inhibition constant Ki of 610 nM. In turn, `CCCCC(Nc1cccc(OC)c1)C(=O)NO` (stereo not drawn) [Compound 167276, 2-(3-Methoxy-phenylamino)-hexanoic acid hydroxyamide] gave an inhibition constant (Ki) of 140000 nM.

In turn, `Cc1cc(NC(C)C(=O)NO)cc(C)c1F` (stereo not drawn) [Compound 167486, 2-(4-Fluoro-3,5-dimethyl-phenylamino)-N-hydroxy-propionamide] yielded a Ki of 690 nM. To `CNc1ccc(S(=O)(=O)NCCCC[C@@H](Nc2cc(C)c(F)c(C)c2)C(=O)NO)cc1` [Compound 167657, (R)-2-(4-Fluoro-3,5-dimethyl-phenylamino)-6-(4-methylamino-benzenesulfonylamino)-hexanoic acid hydroxyamide] belongs 410 nM; to `CCCCC(Nc1cc(C)cc(C)c1)C(=O)NO` (stereo not drawn) [Compound 167226, 2-(3,5-Dimethyl-phenylamino)-hexanoic acid hydroxyamide], 7400 nM; to `Cc1cc(N[C@H](CCCCN)C(=O)NO)ccc1F` [Compound 167949, (R)-6-Amino-2-(4-fluoro-3-methyl-phenylamino)-hexanoic acid hydroxyamide], 200 nM. The same measure for `Cc1cc(N[C@H](CCCCNCc2cnccn2)C(=O)NO)ccc1F` [Compound 168168, (R)-2-(4-Fluoro-3-methyl-phenylamino)-6-[(pyrazin-2-ylmethyl)-amino]-hexanoic acid hydroxyamide]: 630 nM; for `Cc1cc(N[C@H](CCCCNCc2ccc(F)c(F)c2)C(=O)NO)ccc1F` [Compound 167990, (R)-6-(3,4-Difluoro-benzylamino)-2-(4-fluoro-3-methyl-phenylamino)-hexanoic acid hydroxyamide]: 100 nM; for `CCCCC(Nc1ccc(OC)c(C)c1)C(=O)NO` (stereo not drawn) [Compound 167324, 2-(4-Methoxy-3-methyl-phenylamino)-hexanoic acid hydroxyamide]: 19300 nM. In the case of `Cc1cc(N[C@H](CCCCNCCc2ccccc2)C(=O)NO)ccc1F` [Compound 167979, (R)-2-(4-Fluoro-3-methyl-phenylamino)-6-phenethylamino-hexanoic acid hydroxyamide], the Ki turned out to be 210 nM.

Turning to `Cc1cc(N[C@H](CCCCNCc2ccc(F)cc2)C(=O)NO)ccc1F` [Compound 167945, (R)-6-(4-Fluoro-benzylamino)-2-(4-fluoro-3-methyl-phenylamino)-hexanoic acid hydroxyamide], the inhibitory constant (Ki) was determined as 30 nM.

As for `Cc1cc(CNCCCC[C@@H](Nc2cc(C)c(F)c(C)c2)C(=O)NO)cc(C)c1F` [Compound 167759, 6-(4-Fluoro-3,5-dimethyl-benzylamino)-2-(4-fluoro-3,5-dimethyl-phenylamino)-hexanoic acid hydroxyamide], the Ki was found to be 70 nM. `Cc1cc(N[C@H](CCc2ccccc2)C(=O)NO)cc(C)c1F` [Compound 167406, (R)-2-(4-Fluoro-3,5-dimethyl-phenylamino)-N-hydroxy-4-phenyl-butyramide] displayed an inhibitory constant (Ki) of 510 nM. To `Cc1cc(N[C@H](CCCCNC(=O)c2ccccc2)C(=O)NO)cc(C)c1F` [Compound 167587, (R)—N-[5-(4-Fluoro-3,5-dimethyl-phenylamino)-5-hydroxycarbamoyl-pentyl]-benzamide] belongs 970 nM; to `Cc1cc(N[C@H](CCCCNCc2ccccc2)C(=O)NO)ccc1F` [Compound 167980, (R)-6-Benzylamino-2-(4-fluoro-3-methyl-phenylamino)-hexanoic acid hydroxyamide], 150 nM; to `CCCCC(Nc1cc(C)cc(Br)c1)C(=O)NO` (stereo not drawn) [Compound 167844, 2-(3-Bromo-5-methyl-phenylamino)-hexanoic acid hydroxyamide], 3500 nM.

The compound `Cc1cc(N[C@H](CCCCNCc2cc(C)c(OCc3ccccc3)c(C)c2)C(=O)NO)ccc1F` [Compound 167969, (R)-6-(4-Benzyloxy-3,5-dimethyl-benzylamino)-2-(4-fluoro-3-methyl-phenylamino)-hexanoic acid hydroxyamide] came in with a Ki of 270 nM. In turn, `Cc1cc(S(=O)(=O)NCCCC[C@@H](Nc2cc(C)c(F)c(C)c2)C(=O)NO)ccc1F` [Compound 167590, (R)-2-(4-Fluoro-3,5-dimethyl-phenylamino)-6-(4-fluoro-3-methyl-benzenesulfonylamino)-hexanoic acid hydroxyamide] gave an inhibition constant (Ki) of 250 nM. To `Cc1cc(NCC(=O)NO)cc(C)c1F` [Compound 167452, 2-(4-Fluoro-3,5-dimethyl-phenylamino)-N-hydroxy-acetamide] belongs 4000 nM; to `Cc1cc(NC(C(=O)NO)c2ccccc2)ccc1F` (stereo not drawn) [Compound 167228, 2-(4-Fluoro-3-methyl-phenylamino)-N-hydroxy-2-phenyl-acetamide], 2800 nM; to `Cc1cc(CNCCCC[C@@H](Nc2ccc(F)c(C)c2)C(=O)NO)ccc1F` [Compound 167946, (R)-6-(4-Fluoro-3-methyl-benzylamino)-2-(4-fluoro-3-methyl-phenylamino)-hexanoic acid hydroxyamide], 60 nM. For `CCCCC(Nc1ccc(F)cc1)C(=O)NO` (stereo not drawn) [Compound 167211, 2-(4-Fluoro-phenylamino)-hexanoic acid hydroxyamide], the affinity, expressed as Ki, was 81000 nM.

With `Cc1cc(N[C@H](CCCCN(C)Cc2ccc(F)cc2)C(=O)NO)ccc1F` [Compound 168147, (R)-6-[(4-Fluoro-benzyl)-methyl-amino]-2-(4-fluoro-3-methyl-phenylamino)-hexanoic acid hydroxyamide], the Ki is 190 nM. The same measure for `CCCCC(Nc1ccc(C)c(F)c1C)C(=O)NO` (stereo not drawn) [Compound 167455, 2-(3-Fluoro-2,4-dimethyl-phenylamino)-hexanoic acid hydroxyamide]: 88100 nM. `Cc1cc(N[C@H](CCCCNC(=O)Cc2ccc(-n3c(C)ccc3C)cc2)C(=O)NO)cc(C)c1F` [Compound 167592, (R)-6-{2-[4-(2,5-Dimethyl-pyrrol-1-yl)-phenyl]-acetylamino}-2-(4-fluoro-3,5-dimethyl-phenylamino)-hexanoic acid hydroxyamide] returned an inhibition constant (Ki) of 1440 nM. The same measure for `Cc1cc(N[C@H](CCCCNCc2ccc3c(c2)OCO3)C(=O)NO)ccc1F` [Compound 168145, (R)-6-[(Benzo[1,3]dioxol-5-ylmethyl)-amino]-2-(4-fluoro-3-methyl-phenylamino)-hexanoic acid hydroxyamide]: 170 nM. To `Cc1cc(NC(=O)NCCCC[C@@H](Nc2cc(C)c(F)c(C)c2)C(=O)NO)ccc1F` [Compound 167614, (R)-2-(4-Fluoro-3,5-dimethyl-phenylamino)-6-[3-(4-fluoro-3-methyl-phenyl)-ureido]-hexanoic acid hydroxyamide] belongs 280 nM.

`Cc1cc(N[C@H](CCCCNS(=O)(=O)c2cccc(C(=O)O)c2)C(=O)NO)cc(C)c1F` [Compound 167621, (R)-3-[5-(4-Fluoro-3,5-dimethyl-phenylamino)-5-hydroxycarbamoyl-pentylsulfamoyl]-benzoic acid]: the affinity, expressed as Ki, was 1570 nM.

On to `CNc1cccc(S(=O)(=O)NCCCC[C@@H](Nc2cc(C)c(F)c(C)c2)C(=O)NO)c1` [Compound 167667, (R)-2-(4-Fluoro-3,5-dimethyl-phenylamino)-6-(3-methylamino-benzenesulfonylamino)-hexanoic acid hydroxyamide], for which the Ki came out at 590 nM.

`Cc1cc(N[C@H](C(=O)NO)C(C)C)cc(C)c1F` [Compound 167296, (5)-2-(4-Fluoro-3,5-dimethyl-phenylamino)-N-hydroxy-3-methyl-butyramide] came in with a Ki of 201000 nM. As for `Cc1cc(NC(Cc2ccc(OC(F)(F)F)cc2)C(=O)NO)ccc1F` (stereo not drawn) [Compound 167233, 2-(4-Fluoro-3-methyl-phenylamino)-N-hydroxy-3-(4-trifluoromethoxy-phenyl)-propionamide], the Ki turned out to be 102000 nM. In turn, `Cc1cc(N[C@H](CCCCN(Cc2ccc(F)cc2)Cc2ccc(F)cc2)C(=O)NO)ccc1F` [Compound 167963, (R)-6-[Bis-(4-fluoro-benzyl)-amino]-2-(4-fluoro-3-methyl-phenylamino)-hexanoic acid hydroxyamide] displayed an inhibition constant Ki of 1100 nM. The same measure for `Cc1cc(N[C@H](CCCCNS(=O)(=O)c2cc(C)c(F)c(C)c2)C(=O)NO)cc(C)c1F` [Compound 167530, (R)-6-(4-Fluoro-3,5-dimethyl-benzenesulfonylamino)-2-(4-fluoro-3,5-dimethyl-phenylamino)-hexanoic acid hydroxyamide]: 370 nM; for `Cc1cc(N[C@H](CCCCNC(=O)Cc2cccc(Oc3ccccc3)c2)C(=O)NO)cc(C)c1F` [Compound 167611, (R)-2-(4-Fluoro-3,5-dimethyl-phenylamino)-6-[2-(3-phenoxy-phenyl)-acetylamino]-hexanoic acid hydroxyamide]: 740 nM.

As for `Cc1cc(N[C@H](CCCCNS(=O)(=O)c2ccc(F)cc2)C(=O)NO)cc(C)c1F` [Compound 167589, (R)-6-(4-Fluoro-benzenesulfonylamino)-2-(4-fluoro-3,5-dimethyl-phenylamino)-hexanoic acid hydroxyamide], the Ki is 1250 nM. To `CCCC[C@@H](Nc1ccc(F)c(C)c1)C(=O)NO` [Compound 167273, (R)-2-(4-Fluoro-3-methyl-phenylamino)-hexanoic acid hydroxyamide] belongs 710 nM.
